Measured values taken from ChEMBL document CHEMBL1201862, “PubChem BioAssay data set” (2004).
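96-well plates; 48 h exposure; 5 concentrations. Endpoints by linear interpolation between flanking doses. Not reached: highest tested concentration assigned. At the GI50, growth is halved.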 Calls of active or inactive are those of the source. No stated cut-off is given here; in the data, active = GI50 up to about 1.1 µM and inactive = higher.

Assays:
Assay in all cases: inhibition of tumour cell growth, NCI panel, 48 h
SK-MEL-5 = test system: SK-MEL-5
HOP-92 = test system: HOP-92
OVCAR-4 = test system: OVCAR-4
HCC 2998 = test system: HCC 2998
SK-MEL-2 = test system: SK-MEL-2
HL-60 = test system: HL-60
U-251 = test system: U-251
ACHN = test system: ACHN
UACC-257 = test system: UACC-257
K562 = test system: K562
SF-295 = test system: SF-295
IGROV-1 = test system: IGROV-1
786-0 = test system: 786-0
HCT-15 = test system: HCT-15
SF-539 = test system: SF-539
SNB-75 = test system: SNB-75
SK-MEL-28 = test system: SK-MEL-28
HCT-116 = test system: HCT-116
DU-145 = test system: DU-145
PC-3 = test system: PC-3

In the case of `OCC(O)CNc1ccnc2cc(Cl)ccc12` (stereo not drawn), the GI50 (SK-MEL-5) is reported as > 100 µM (inactive), the GI50 (HOP-92) is reported as > 100 µM (inactive) and the GI50 (OVCAR-4) is reported as > 100 µM (inactive). The GI50 (HCC 2998) was > 100 µM (inactive), the GI50 (SK-MEL-2) was > 100 µM (inactive) and the GI50 (HL-60) was > 100 µM (inactive). The GI50 (U-251) was > 100 µM (inactive), the GI50 (ACHN) was > 100 µM (inactive) and the GI50 (UACC-257) was > 100 µM (inactive). For the same compound, the GI50 (K562) was > 100 µM (inactive), the GI50 (SF-295) was > 100 µM (inactive) and the GI50 (IGROV-1) was > 100 µM (inactive). The GI50 (786-0) was > 100 µM (inactive), the GI50 (HCT-15) was greater than 100 µM and the GI50 (SF-539) was > 100 µM (inactive). The GI50 (SNB-75) was > 100 µM (inactive), the GI50 (SK-MEL-28) was > 100 µM (inactive) and the GI50 (HCT-116) was > 100 µM (inactive).
In the case of `COc1ccc(-c2c(C(C)=O)c(-c3ccccc3)n(C3OC(CO)C(O)C(O)C3O)c(=S)c2C#N)cc1` (stereo not drawn), the GI50 (SK-MEL-5) is reported as > 100 µM (inactive), the GI50 (OVCAR-4) is reported as > 100 µM (inactive) and the GI50 (HCC 2998) is reported as > 100 µM (inactive). For the same compound, the GI50 (HL-60) was > 100 µM (inactive), the GI50 (U-251) was > 100 µM (inactive) and the GI50 (ACHN) was > 100 µM (inactive). The GI50 (DU-145) was > 100 µM (inactive), the GI50 (UACC-257) was > 100 µM (inactive) and the GI50 (K562) was > 100 µM (inactive). The GI50 (SF-295) was > 100 µM (inactive), the GI50 (IGROV-1) was > 100 µM (inactive) and the GI50 (786-0) was > 100 µM (inactive). For the same compound, the GI50 (HCT-15) was greater than 100 µM, the GI50 (SF-539) was > 100 µM (inactive) and the GI50 (SK-MEL-28) was > 100 µM (inactive). For the same compound, the GI50 (HCT-116) was > 100 µM (inactive).
For `O=C(O/N=C1/CCC/C1=C\c1ccccc1)c1ccc(Cl)c(Cl)c1`, the GI50 (SK-MEL-5) was > 100 µM (inactive), the GI50 (HOP-92) was > 100 µM (inactive) and the GI50 (OVCAR-4) was 35 µM (inactive). The GI50 (HCC 2998) was > 100 µM (inactive), the GI50 (SK-MEL-2) was > 100 µM (inactive) and the GI50 (HL-60) was > 100 µM (inactive). The GI50 (U-251) was > 100 µM (inactive), the GI50 (ACHN) was > 100 µM (inactive) and the GI50 (UACC-257) was > 100 µM (inactive). For the same compound, the GI50 (K562) was > 100 µM (inactive), the GI50 (SF-295) was > 100 µM (inactive) and the GI50 (IGROV-1) was > 100 µM (inactive). For the same compound, the GI50 (786-0) was > 100 µM (inactive), the GI50 (HCT-15) was greater than 100 µM and the GI50 (SF-539) was > 100 µM (inactive). For the same compound, the GI50 (SNB-75) was > 100 µM (inactive), the GI50 (SK-MEL-28) was > 100 µM (inactive) and the GI50 (HCT-116) was > 100 µM (inactive).
In the case of `COc1cc(Nc2cnc3cc(N)ccc3n2)cc(OC)c1OC`, the GI50 (SK-MEL-5) is reported as 69 µM (inactive), the GI50 (HOP-92) is reported as > 100 µM (inactive) and the GI50 (OVCAR-4) is reported as > 100 µM (inactive). For the same compound, the GI50 (HCC 2998) was 50.1 µM (inactive), the GI50 (SK-MEL-2) was > 100 µM (inactive) and the GI50 (HL-60) was 40.1 µM (inactive). For the same compound, the GI50 (U-251) was 65.2 µM (inactive), the GI50 (ACHN) was > 100 µM (inactive) and the GI50 (UACC-257) was > 100 µM (inactive). For the same compound, the GI50 (K562) was 42.3 µM (inactive), the GI50 (SF-295) was 72.4 µM (inactive) and the GI50 (IGROV-1) was > 100 µM (inactive). The GI50 (786-0) was > 100 µM (inactive), the GI50 (HCT-15) was 55.2 µM and the GI50 (SF-539) was > 100 µM (inactive). For the same compound, the GI50 (SNB-75) was > 100 µM (inactive), the GI50 (SK-MEL-28) was > 100 µM (inactive) and the GI50 (HCT-116) was > 100 µM (inactive).
With `COc1ccc(/C=C/C(=O)c2sc(-n3nc(-c4ccccc4)cc3-c3ccccc3)nc2C)cc1` the GI50 (SK-MEL-5) was 52.1 µM (inactive), the GI50 (HOP-92) was > 10 µM (inactive) and the GI50 (OVCAR-4) was 43.6 µM (inactive). For the same compound, the GI50 (HCC 2998) was > 10 µM (inactive), the GI50 (SK-MEL-2) was > 10 µM (inactive) and the GI50 (HL-60) was > 10 µM (inactive). The GI50 (U-251) was 62.2 µM (inactive), the GI50 (ACHN) was > 10 µM (inactive) and the GI50 (UACC-257) was 79.1 µM (inactive). The GI50 (K562) was 52.2 µM (inactive), the GI50 (SF-295) was > 10 µM (inactive) and the GI50 (IGROV-1) was > 10 µM (inactive). For the same compound, the GI50 (786-0) was > 10 µM (inactive), the GI50 (HCT-15) was 75.2 µM and the GI50 (SF-539) was > 10 µM (inactive). The GI50 (SNB-75) was 8.43 µM (inactive), the GI50 (SK-MEL-28) was > 10 µM (inactive) and the GI50 (HCT-116) was > 10 µM (inactive).
With `CCOC(=O)NC(C(=O)OCC)C(F)(F)F` (stereo not drawn) the GI50 (SK-MEL-5) was > 100 µM (inactive), the GI50 (HOP-92) was 71.4 µM (inactive) and the GI50 (HCC 2998) was > 100 µM (inactive). The GI50 (SK-MEL-2) was > 100 µM (inactive), the GI50 (HL-60) was 23.9 µM (inactive) and the GI50 (U-251) was > 100 µM (inactive). For the same compound, the GI50 (ACHN) was > 100 µM (inactive), the GI50 (UACC-257) was > 100 µM (inactive) and the GI50 (K562) was > 100 µM (inactive). The GI50 (SF-295) was > 100 µM (inactive), the GI50 (PC-3) was > 100 µM (inactive) and the GI50 (IGROV-1) was > 100 µM (inactive). For the same compound, the GI50 (786-0) was > 100 µM (inactive), the GI50 (HCT-15) was greater than 100 µM and the GI50 (SF-539) was 37.4 µM (inactive). The GI50 (SNB-75) was > 100 µM (inactive), the GI50 (SK-MEL-28) was > 100 µM (inactive) and the GI50 (HCT-116) was > 100 µM (inactive).
With `Cc1ccc(S(=O)(=O)N2CCNCCN(S(=O)(=O)c3ccc(C)cc3)CCNCC2)cc1` the GI50 (SK-MEL-5) was 16.3 µM (inactive), the GI50 (HOP-92) was 18.7 µM (inactive) and the GI50 (OVCAR-4) was 32.2 µM (inactive). The GI50 (HCC 2998) was 15.7 µM (inactive), the GI50 (SK-MEL-2) was 19.8 µM (inactive) and the GI50 (HL-60) was 10.2 µM (inactive). For the same compound, the GI50 (U-251) was 20.2 µM (inactive), the GI50 (ACHN) was 28.9 µM (inactive) and the GI50 (DU-145) was 19.5 µM (inactive). For the same compound, the GI50 (UACC-257) was 16.4 µM (inactive), the GI50 (K562) was 14.2 µM (inactive) and the GI50 (SF-295) was 15.8 µM (inactive). For the same compound, the GI50 (IGROV-1) was 19.7 µM (inactive), the GI50 (786-0) was 18.7 µM (inactive) and the GI50 (HCT-15) was 32.9 µM. For the same compound, the GI50 (SF-539) was 19.1 µM (inactive), the GI50 (SNB-75) was 20.2 µM (inactive) and the GI50 (SK-MEL-28) was 18.5 µM (inactive). For the same compound, the GI50 (HCT-116) was 15 µM (inactive).
For `CC(C)CCCC(C)C1CCC2C3CC([N+](=O)[O-])=C4CC(O)CCC4(C)C3CCC12C` (stereo not drawn), the GI50 (SK-MEL-5) was > 10 µM (inactive), the GI50 (HOP-92) was 23.3 µM (inactive) and the GI50 (OVCAR-4) was 21.4 µM (inactive). For the same compound, the GI50 (HCC 2998) was 20.2 µM (inactive), the GI50 (SK-MEL-2) was 12.4 µM (inactive) and the GI50 (HL-60) was 25 µM (inactive). For the same compound, the GI50 (U-251) was 15.5 µM (inactive), the GI50 (ACHN) was 43.4 µM (inactive) and the GI50 (UACC-257) was 10.8 µM (inactive). The GI50 (K562) was 9.62 µM (inactive), the GI50 (SF-295) was 14.2 µM (inactive) and the GI50 (IGROV-1) was 23.8 µM (inactive). The GI50 (786-0) was 16.9 µM (inactive), the GI50 (HCT-15) was 17.3 µM and the GI50 (SF-539) was 11.5 µM (inactive). For the same compound, the GI50 (SNB-75) was 17.1 µM (inactive), the GI50 (SK-MEL-28) was 13.7 µM (inactive) and the GI50 (HCT-116) was 14.8 µM (inactive).
